According to PMC7534258, “Novel temporin L antimicrobial peptides: promoting self-assembling by lipidic tags to tackle superbugs” (Journal of Enzyme Inhibition and Medicinal Chemistry, 2020):
Where a SMILES comes first, the peptide text is derived from it. [ ]: non-standard residue; d: D form. The star is where a group is joined. Phe(4-NH2) = Nc1ccc(C[C@H](N)C(=O)O)cc1; Pentanoyl = CCCCC(=O)*

Columns and labels:
P. aeruginosa ATCC 27853 = assay: Broth microdilution MIC, reference strain; type: cell-based, Pseudomonas aeruginosa
Procedure: (§1) Staphylococcus aureus ATCC 25923, Pseudomonas aeruginosa ATCC 27853 and Klebsiella pneumoniae ATCC BAA-1705 (carbapenemase producer) were obtained from the American Type Culture Collection (Rockville, MD).
(§2) Identification was performed by sub-culturing on Tryptic Soy Agar (TSA, Becton Dickinson) and by biochemical characterisation using the Vitek II system (Biomerieux). The antimicrobial susceptibility testing of all isolates was determined using Vitek II system and results were interpreted according to European Committee on Antimicrobial Susceptibility Testing (EUCAST version 9.0, 2019). P. aeruginosa was cultured in Brain Heart Infusion broth (BHI, OXOID), S. aureus and K. pneumoniae were cultured in Tryptic Soya broth (TSB, OXOID), under aerobic conditions at 37 °C, for 24 h on an orbital shaker at 200 rpm.
(§3) Minimal inhibitory concentrations (MIC) of all the peptides were determined in Mueller–Hinton medium by the broth microdilution assay, following the procedure already described[22]^,[34]. The compounds were added to bacterial suspension in each well yielding a final cell concentration of 1 × 10^6 CFU/ml and a final compound concentration ranging from 0.78 to 100 µM. Negative control wells were set to contain bacteria in Mueller–Hinton broth plus the amount of vehicle (ethanol) used to dilute each compound. Positive controls included vancomycin (2 µg/ml), tobramycin (4 µg/ml), gentamycin (4 µg/ml), and imipenem (8 µg/ml).

[1] = tested on: K. pneumoniae ATCC BAA-1705; assay: Broth microdilution MIC, reference strain; type: cell-based, Klebsiella pneumoniae
Procedure: as §1, §2, §3

S. aureus ATCC 25923 = assay: microbe, parasite or virus in culture; settings: ATCC 25923
Procedure: as §1, §2, §3

[2] = 90% human serum, 37 ± 1 °C, 200 µM
Procedure: Human serum from human male AB plasma was acquired by Sigma-Aldrich-Merk. Water and MeCN were obtained from commercial suppliers and used without further purification. Analytical RP-UHPLC was performed on a Shimadzu Nexera equipped with a Phenomenex Kinetex column (C18, 4.6 mm x 150 mm, […]) and H2O (0.1% TFA) and MeCN (0.1% TFA) as eluents.
Serum stability was evaluated by modification of elsewhere described methods[37]^,[38]. In particular, the human serum was allocated into a 1.5 ml eppendorf tube and temperature equilibrated at 37 ± 1 °C for 15 min. Peptides 1B, and C were dissolved in sterile water to prepare a stock solution of 2 mM and then mixed with the human serum to make a final concentration of 0.2 mM (90% serum). The resulting reaction solution was incubated at 37 ± 1 °C. Aliquots of the reaction solutions were taken at known time intervals (0, 15, 45, 75, 90, 120 min), subjected to serum proteins precipitation by addition of MeCN (double volume respect to the aliquot). The cloudy reaction sample was cooled (4 °C) for 15 min and then spun at 13000 rpm for 10 min to pellet the precipitated serum proteins. The supernatant was then analysed by RP-UHPLC by using a linear elution gradient from 10 to 90% MeCN (0.1% TFA) in water (0.1% TFA) over 20 min. A flow rate of 1 ml/min was used, absorbance was detected at 220 nm, and the analysis was performed at room temperature.

ANTS/DPX leakage assay = settings: ANTS/DPX-loaded LUVs, Gram-positive and Gram-negative mimicking
Procedure: Large unilamellar vesicles (LUVs) and small unilamellar vesicles (SUVs) consisting of DOPG/CL (58/42 ratio in moles) and DOPG/DOPE/CL (63/23/12 ratio in moles), mimic the Gram-positive membrane and Gram-negative membrane, respectively. LUVs were prepared using the extrusion method as previously described. In particular, first lipid films were prepared by dissolving an appropriate amount of lipids in chloroform and fluorescent probes were added when necessary, then dried under a nitrogen gas stream and freeze-dried overnight. In all experiments, we used a final lipid concentration of 0.1 mM. For fluorescence experiments, buffer was added to dry lipid films and vortexed for 1 h; then the lipid suspension was freeze-thawed 6 times and extruded 10 times through polycarbonate membranes with 0.1 µm diameter pores to obtain LUVs. For circular dichroism measurements, peptide samples in SUVs were prepared as reported in the following protocol. Lipids were dissolved in chloroform and added to an equal volume of peptide solution dissolved in TFE containing appropriate peptide concentration. The samples were vortexed and lyophilised overnight. The dry samples were rehydrated with phosphate buffer 5 mM, pH 7.4 for 1 h and sonicated for 30 min.
The ANTS/DPX leakage assay was used to measure the ability of peptide to permeabilise and induce leakage of encapsulated dyes. After lipid films were prepared as previously described, ANTS (12.5 mM) and DPX (45 mM) were dissolved in 2 ml water, were added to lipid films and then lyophilised overnight. The lipid films with encapsulated ANTS and DPX were hydrated with PBS 1X buffer, vortexed for 1 h and then treated to obtain LUVs. The non-encapsulated ANTS and DPX were removed by gel filtration using a Sephadex G-50 column (1.5 cm × 10 cm) at room temperature. To start up the leakage experiment, a 2 mM peptide stock solution was prepared and LUVs were titrated with the peptide. Samples were excited at 385 nm (slit width, 5 nm) and fluorescence emission was recorded at 512 nm (slit width, 5 nm). After the addition of peptide, we evaluated leakage of encapsulated ANTS through a change in fluorescence spectra of ANTS and DPX. In particular, leakage is associated to an increase in ANTS fluorescence at 512 nm. Complete release of ANTS was obtained by using 0.1% Triton X, which caused the total destruction of liposomes. The percentage of leakage was calculated as % leakage =(Fi−F0)/(Ft−F0), where F0 represents the fluorescence of intact LUVs before the addition of peptide, and Fi and Ft denote the intensities of the fluorescence achieved after peptide and Triton-X treatment, respectively.

[3] = 100% growth inhibition after 16–18 h at 37 °C

| SMILES | Antimicrobial activity (MIC) P. aeruginosa ATCC 27853 (P. aeruginosa ATCC 27853; ATCC 27853) [µM] | Antimicrobial activity (MIC) K. pneumoniae ATCC BAA-1705 ([1]; ATCC BAA-1705) [µM] | Antimicrobial activity (MIC) S. aureus ATCC 25923 (S. aureus ATCC 25923) [µM] | start of partial degradation in human serum [2] [min] | time peptide is stable in human serum [2] | membrane leakage ability (in words) (ANTS/DPX leakage assay) | Antimicrobial activity (MIC) P. aeruginosa ATCC 27853 (P. aeruginosa ATCC 27853; [3]) [µM] | Antimicrobial activity (MIC) K. pneumoniae ATCC BAA-1705 [1, 3] [µM] | proteolytic stability in human serum (in words) ([2]; within 120 min) |
| --- | --- | --- | --- | --- | --- | --- | --- | --- | --- |
| CCCCC(=O)Nc1ccc(C[C@H](N)C(=O)N[C@H](C(=O)N2CCC[C@H]2C(=O)N[C@@H](Cc2c[nH]c3ccccc23)C(=O)N[C@@H](Cc2ccccc2)C(=O)N[C@@H](CO)C(=O)N[C@@H](CCCCN)C(=O)N[C@@H](Cc2ccccc2)C(=O)N[C@H](CC(C)C)C(=O)N[C@H](CCCCN)C(=O)N[C@@H](CCCNC(=N)N)C(=O)N[C@H](C(=O)N[C@@H](CC(C)C)C(N)=O)[C@@H](C)CC)C(C)C)cc1 [C, H-Phe(4-NHCO(CH2)3CH3)-Val-Pro-Trp-Phe-Ser-Lys-Phe-DLeu-DLys-Arg-Ile- Leu-NH2] (H-[Phe(4-NH2)](Pentanoyl)VPWFSKF[dL][dK]RIL-NH2) | 25 | 6.25 | 6.25 | 80 | up to 1 h | intermediate ability to produce leakage |  |  |  |
| CC[C@H](C)[C@H](NC(=O)[C@H](CCCNC(=N)N)NC(=O)[C@@H](CCCCN)NC(=O)[C@@H](CC(C)C)NC(=O)[C@H](Cc1ccccc1)NC(=O)[C@H](CCCCN)NC(=O)[C@H](CO)NC(=O)[C@H](Cc1ccccc1)NC(=O)[C@H](Cc1c[nH]c2ccccc12)NC(=O)[C@@H]1CCCN1C(=O)[C@@H](NC(=O)[C@@H](N)Cc1ccccc1)C(C)C)C(=O)N[C@@H](CC(C)C)C(N)=O [Compound 1B, H-Phe-Val-Pro-Trp-Phe-Ser-Lys-Phe-DLeu-DLys-Arg-Ile-Leu-NH2] (H-FVPWFSKF[dL][dK]RIL-NH2) |  |  | 6.25 |  |  | lowest leakage ability | 12.5 | 12.5 | rapidly degraded |
